Legend:
Type in all cases: in vivo
Conditions in all cases: applied at 3-5 leaf stage, scored visually approx. 4-6 weeks after application, means of 2-3 repetitions, g of AS/ha: (A1 + B2)^S 12.5 + 6.25; Azur 800 + 40 + 200; B2 5; E) 60
[1] = tested on: Galium aparine; test: Outdoor trial: herbicidal action, visual score
Description: (§1) Herbicidal action and compatibility in outdoor trials
(§2) The plants were sown and cultivated (fertilization, irrigation, etc.) as customary in practice on trial fields with naturally occurring weeds.
(§3) The experiments were designed as random tests of 2 plots of 5-10 m^2, with 2-3 repetitions. Application was carried out using plot sprayers at the 3-5 leaf stage. The test substances were made up in 100-600 liters of water/ha and applied with a pressure of 3 bar.
(§4) After the treatment (approx. 4-6 weeks after application), the herbidical activity of the active compounds or active compound mixtures was scored visually by comparing the treated plants with the untreated controls. The damage and development of all above-ground parts of the plants was recorded. Scoring was done on a percentage scale (100% action=all plants dead; 50% action=50% of the plants and green plant parts dead; 0% action=no discernible action or damage to crop species.
(§5) In the tables below, the results are given as the means of 2-3 repetitions, and the activity achieved when active compounds (A+B) and C) were applied independently is stated in brackets.

[2] = tested on: Avena fatua; test: Outdoor trial: herbicidal action, visual score
Description: as §1, §2, §3, §4, §5

[3] = tested on: Winter wheat; test: Outdoor trial: compatibility, % damage to crop
Description: as §1, §2, §3, §4, §5

Structure (SMILES)	% Activity Galium aparine [1]	% Activity Avena fatua [2]	Winter wheat % Damage [3]
COC(=O)c1ccc(I)cc1S(=O)(=O)[N-]C(=O)Nc1nc(C)nc(OC)n1.[Na+] [B2, iodosulfuron-methyl-sodium]	25%	68%	0%
CCOC(=O)[C@@H](C)Oc1ccc(Oc2nc3ccc(Cl)cc3o2)cc1 [E), fenoxaprop-(P)-ethyl]	0) %	70) %	

— patent publication US20030181333A1, “Herbicide combinations comprising specific sulfonylureas” (Bayer CropScience GmbH, priority 2002, published 2003)
